From ChEMBL document CHEMBL1255573, “Synthesis and biochemical characterization of a series of 17α-perfluoroalkylated estradiols as selective ligands for estrogen receptor α” (J Med Chem, 2010)

Assays:
Estrogen receptor [1] = molecular target: T1, Estrogen receptor (Homo sapiens, UniProt P03372); assay: Antagonist activity at ERalpha-LBD in human U2OS cells transfected with Gal4-DBD assessed as inhibition of transactivation activity after 18 hrs by luciferase reporter gene assay; type: functional, cell-based
T1 sequence (P03372 whole entry): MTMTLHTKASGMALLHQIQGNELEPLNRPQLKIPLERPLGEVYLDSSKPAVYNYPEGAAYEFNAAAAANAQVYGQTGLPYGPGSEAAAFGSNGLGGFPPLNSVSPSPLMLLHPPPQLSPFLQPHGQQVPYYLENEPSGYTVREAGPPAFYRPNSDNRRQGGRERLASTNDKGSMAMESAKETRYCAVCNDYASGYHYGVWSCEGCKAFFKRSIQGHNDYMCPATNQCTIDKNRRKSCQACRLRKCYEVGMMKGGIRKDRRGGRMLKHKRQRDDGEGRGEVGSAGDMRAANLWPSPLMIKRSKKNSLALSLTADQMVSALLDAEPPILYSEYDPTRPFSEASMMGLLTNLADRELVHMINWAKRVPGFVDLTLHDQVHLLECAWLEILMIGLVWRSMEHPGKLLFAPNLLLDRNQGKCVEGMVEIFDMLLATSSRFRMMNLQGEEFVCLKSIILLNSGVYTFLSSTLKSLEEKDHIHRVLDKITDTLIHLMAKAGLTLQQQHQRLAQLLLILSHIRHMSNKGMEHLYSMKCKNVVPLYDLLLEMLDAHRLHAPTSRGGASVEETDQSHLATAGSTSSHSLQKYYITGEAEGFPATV

Glucocorticoid receptor [2] = molecular target: T2, Glucocorticoid receptor (Homo sapiens, UniProt P04150)
T2 sequence (P04150 whole entry): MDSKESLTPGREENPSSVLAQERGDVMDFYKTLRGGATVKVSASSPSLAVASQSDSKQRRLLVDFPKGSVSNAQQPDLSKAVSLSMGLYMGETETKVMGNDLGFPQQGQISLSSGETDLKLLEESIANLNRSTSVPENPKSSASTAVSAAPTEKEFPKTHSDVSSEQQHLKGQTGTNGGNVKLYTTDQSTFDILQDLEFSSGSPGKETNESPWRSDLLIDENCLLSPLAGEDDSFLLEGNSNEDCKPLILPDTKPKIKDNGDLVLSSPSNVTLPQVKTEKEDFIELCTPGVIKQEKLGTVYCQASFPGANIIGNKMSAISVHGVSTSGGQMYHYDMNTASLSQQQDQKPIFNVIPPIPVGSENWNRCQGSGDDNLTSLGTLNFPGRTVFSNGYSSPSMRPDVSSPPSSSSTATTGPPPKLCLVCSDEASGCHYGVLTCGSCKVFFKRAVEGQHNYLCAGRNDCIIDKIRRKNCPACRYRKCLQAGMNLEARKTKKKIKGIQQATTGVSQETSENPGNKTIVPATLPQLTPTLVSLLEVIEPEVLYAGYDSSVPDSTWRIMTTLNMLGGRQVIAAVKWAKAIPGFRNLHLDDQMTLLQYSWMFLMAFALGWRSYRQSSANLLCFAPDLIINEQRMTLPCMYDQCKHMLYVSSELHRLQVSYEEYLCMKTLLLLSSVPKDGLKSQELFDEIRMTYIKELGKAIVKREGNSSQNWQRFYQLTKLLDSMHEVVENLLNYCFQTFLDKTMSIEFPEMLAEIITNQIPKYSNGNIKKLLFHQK
Description: Antagonist activity at glucocorticoid receptor-LBD in human U2OS cells transfected with Gal4-DBD assessed as inhibition of transactivation activity after 18 hrs by luciferase reporter gene assay

[3] = molecular target: T3, Mineralocorticoid receptor (Homo sapiens, UniProt P08235); assay: Agonist activity at mineralocorticoid receptor-LBD in human U2OS cells transfected with Gal4-DBD assessed as increase of transactivation activity after 18 hrs by luciferase reporter gene assay; type: functional, cell-based
T3 sequence (P08235 whole entry): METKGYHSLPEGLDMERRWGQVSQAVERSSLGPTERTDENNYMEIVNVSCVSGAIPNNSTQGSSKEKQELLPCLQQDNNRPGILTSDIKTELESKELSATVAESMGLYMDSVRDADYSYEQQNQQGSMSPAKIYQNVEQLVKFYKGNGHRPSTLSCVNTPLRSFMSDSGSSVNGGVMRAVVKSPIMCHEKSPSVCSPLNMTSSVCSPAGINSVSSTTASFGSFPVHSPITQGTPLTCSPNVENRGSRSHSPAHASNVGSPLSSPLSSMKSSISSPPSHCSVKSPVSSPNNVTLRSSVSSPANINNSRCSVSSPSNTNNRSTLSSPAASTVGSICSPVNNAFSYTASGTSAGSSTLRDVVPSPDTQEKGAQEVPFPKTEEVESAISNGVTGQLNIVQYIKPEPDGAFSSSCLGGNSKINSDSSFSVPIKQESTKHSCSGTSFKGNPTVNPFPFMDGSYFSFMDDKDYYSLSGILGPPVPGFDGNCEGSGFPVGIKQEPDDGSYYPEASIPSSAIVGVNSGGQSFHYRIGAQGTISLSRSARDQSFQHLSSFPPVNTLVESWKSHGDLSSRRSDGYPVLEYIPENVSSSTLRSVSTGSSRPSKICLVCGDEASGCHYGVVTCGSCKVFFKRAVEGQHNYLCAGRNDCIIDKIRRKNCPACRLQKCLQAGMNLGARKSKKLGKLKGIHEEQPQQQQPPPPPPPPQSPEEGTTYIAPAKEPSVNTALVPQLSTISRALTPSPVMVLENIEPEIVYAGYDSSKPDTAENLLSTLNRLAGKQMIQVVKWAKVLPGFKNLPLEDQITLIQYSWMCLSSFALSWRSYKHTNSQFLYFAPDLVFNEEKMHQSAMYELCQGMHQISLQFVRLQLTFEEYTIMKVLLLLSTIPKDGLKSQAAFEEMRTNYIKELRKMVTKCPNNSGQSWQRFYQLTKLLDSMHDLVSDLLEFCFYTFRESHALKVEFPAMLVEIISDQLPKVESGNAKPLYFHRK

Estrogen receptor beta [4] = molecular target: T4, Estrogen receptor beta (Homo sapiens, UniProt Q92731); assay: Agonist activity at ERbeta-LBD in human U2OS cells transfected with Gal4-DBD assessed as increase of transactivation activity after 18 hrs by luciferase reporter gene assay; type: functional, cell-based; conditions: for pEC50: u2os
T4 sequence (Q92731 whole entry, the tested form may be a part): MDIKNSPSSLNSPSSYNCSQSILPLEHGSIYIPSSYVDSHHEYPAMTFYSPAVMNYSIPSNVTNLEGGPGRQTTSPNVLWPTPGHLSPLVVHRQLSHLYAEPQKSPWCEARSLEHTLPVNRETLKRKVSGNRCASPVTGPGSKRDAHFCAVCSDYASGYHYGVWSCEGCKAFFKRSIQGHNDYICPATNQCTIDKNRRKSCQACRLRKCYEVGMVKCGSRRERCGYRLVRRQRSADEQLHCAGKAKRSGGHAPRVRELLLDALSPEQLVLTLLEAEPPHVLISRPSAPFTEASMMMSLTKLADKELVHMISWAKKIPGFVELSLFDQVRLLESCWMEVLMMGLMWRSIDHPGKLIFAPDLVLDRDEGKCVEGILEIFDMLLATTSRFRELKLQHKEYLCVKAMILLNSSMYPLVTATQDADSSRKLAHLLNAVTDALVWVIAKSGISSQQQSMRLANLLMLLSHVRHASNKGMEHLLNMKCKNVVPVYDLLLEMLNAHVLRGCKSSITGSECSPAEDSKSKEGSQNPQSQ

[5] = molecular target: T3, Mineralocorticoid receptor; assay: Antagonist activity at mineralocorticoid receptor-LBD in human U2OS cells transfected with Gal4-DBD assessed as inhibition of transactivation activity after 18 hrs by luciferase reporter gene assay; type: functional, cell-based; conditions: for pIC50: u2os
Glucocorticoid receptor [6] = molecular target: T2, Glucocorticoid receptor; remark: listed apart in the source
Description: Agonist activity at glucocorticoid receptor-LBD in human U2OS cells transfected with Gal4-DBD assessed as increase of transactivation activity after 18 hrs by luciferase reporter gene assay

Estrogen receptor [7] = molecular target: T1, Estrogen receptor; assay: Agonist activity at ERalpha-LBD in human U2OS cells transfected with Gal4-DBD assessed as increase of transactivation activity after 18 hrs by luciferase reporter gene assay; type: functional, cell-based; conditions: for pEC50: u2os
Estrogen receptor beta [8] = molecular target: T4, Estrogen receptor beta; assay: Agonist activity at ERbeta-LBD in human U2OS cells transfected with Gal4-DBD assessed as increase of transactivation activity after 18 hrs by luciferase reporter gene assay relative to 17-beta-estradiol; type: functional, cell-based
Estrogen receptor beta [9] = molecular target: T4, Estrogen receptor beta; assay: Antagonist activity at ERbeta-LBD in human U2OS cells transfected with Gal4-DBD assessed as inhibition of transactivation activity after 18 hrs by luciferase reporter gene assay; type: functional, cell-based

Row | Structure (SMILES) | IC50 (Estrogen receptor [1]) | IC50 (Glucocorticoid receptor [2]) | EC50 [3] | EC50 (Estrogen receptor beta [4]) | IC50 [5] | EC50 (Glucocorticoid receptor [6]) | EC50 (Estrogen receptor [7]) | Activity (Estrogen receptor beta [8]) | IC50 (Estrogen receptor beta [9]) | pIC50 [5] | pEC50 (Estrogen receptor beta [4]) | pEC50 (Estrogen receptor [7])
1 | COc1ccc2c(c1)CC[C@@H]1[C@@H]2CC[C@@]2(C)[C@H]1CC[C@@]2(O)C/C=C/CC(F)(F)C(F)(F)C(F)(F)F | < 15.8 µM | < 15.8 µM | < 15.8 µM |  |  | < 15.8 µM | 1.66 µM |  | < 15.8 µM | > 4.8 | > 4.817 | 
2 | COc1ccc2c(c1)CC[C@@H]1[C@@H]2CC[C@@]2(C)[C@H]1CC[C@@]2(O)/C=C/CC(F)(F)C(F)(F)C(F)(F)F | < 15.8 µM | < 9.25 µM | < 15.8 µM | 5.19 µM |  | < 15.8 µM | 4.03 µM | 0.01% | < 15.8 µM | > 4.841 |  | 
3 | C[C@]12CC[C@@H]3c4ccc(O)cc4CC[C@H]3[C@@H]1CC[C@@]2(O)/C=C/CC(F)(F)C(F)(F)C(F)(F)C(F)(F)C(F)(F)C(F)(F)F | < 15.8 µM | < 15.8 µM | < 15.8 µM | < 2.75 µM | < 5.36 µM | < 15.8 µM | 2.08 µM |  | < 11.9 µM |  |  | 
4 | C[C@]12CC[C@@H]3c4ccc(O)cc4CC[C@H]3[C@@H]1CC[C@@]2(O)C/C=C/CC(F)(F)C(F)(F)C(F)(F)C(F)(F)C(F)(F)C(F)(F)F | < 15.8 µM | < 15.8 µM | < 15.8 µM | 0.052 µM | < 4.82 µM | < 15.8 µM | 1.03 µM | 0.88% | < 15.8 µM |  |  | 
5 | COc1ccc2c(c1)CC[C@@H]1[C@@H]2CC[C@@]2(C)[C@H]1CC[C@@]2(O)C/C=C/CC(F)(F)C(F)(F)C(F)(F)C(F)(F)C(F)(F)C(F)(F)F | < 15.8 µM | < 15.8 µM | < 15.8 µM |  |  | 0.00673 µM |  |  | < 15.8 µM | > 4.8 | > 4.902 | > 4.8
6 | COc1ccc2c(c1)CC[C@@H]1[C@@H]2CC[C@@]2(C)[C@H]1CC[C@@]2(O)/C=C/CC(F)(F)C(F)(F)C(F)(F)C(F)(F)C(F)(F)C(F)(F)F | < 15.8 µM | < 15.8 µM | < 15.8 µM | < 8.34 µM |  | < 15.8 µM |  |  | < 15.8 µM | > 4.8 |  | > 4.8
7 | C[C@]12CC[C@@H]3c4ccc(O)cc4CC[C@H]3[C@@H]1CC[C@@]2(O)C/C=C/CC(F)(C(F)(F)F)C(F)(F)F | < 15.8 µM | < 13.5 µM | < 15.8 µM |  | 5.14 µM | < 15.8 µM | 0.403 µM |  | < 4.05 µM |  | > 4.8 | 

More lines, now with the values ahead:

Row | IC50 (Estrogen receptor [1]) | IC50 (Glucocorticoid receptor [2]) | EC50 [3] | EC50 (Estrogen receptor beta [4]) | IC50 [5] | EC50 (Glucocorticoid receptor [6]) | EC50 (Estrogen receptor [7]) | Activity (Estrogen receptor beta [8]) | IC50 (Estrogen receptor beta [9]) | pIC50 [5] | pEC50 (Estrogen receptor beta [4]) | pEC50 (Estrogen receptor [7]) | Structure (SMILES)
8 | < 15.8 µM | 3.13 µM | < 15.8 µM | 0.129 µM | 3.81 µM | < 15.8 µM | 0.0355 µM | 0.35% | < 12.4 µM |  |  |  | C[C@]12CC[C@@H]3c4ccc(O)cc4CC[C@H]3[C@@H]1CC[C@@]2(O)/C=C/CC(F)(F)C(F)(F)C(F)(F)F
9 | < 15.8 µM | < 5.5 µM | < 15.8 µM | 2.4 µM |  | < 15.8 µM | 0.485 µM | 0.02% | < 15.8 µM | > 4.901 |  |  | C[C@]12CC[C@@H]3c4ccc(O)cc4CC[C@H]3[C@@H]1CC[C@@]2(O)C/C=C/CC(F)(F)C(F)(F)C(F)(F)F
10 | < 15.8 µM | 13.6 µM | < 15.8 µM |  | < 6.65 µM | < 15.8 µM | 9.95 µM |  | < 15.7 µM |  | > 4.713 |  | C[C@]12CC[C@@H]3c4ccc(O)cc4CC[C@H]3[C@@H]1CC[C@@]2(O)/C=C/CC(F)(C(F)(F)F)C(F)(F)F
